Common to all, as to format: in vivo, BALB/c mice
Data set [1] in a line: Test Method A: body weight of the treated mice. To be noted: 100 µg/mouse intratumorally once daily Day 1 to Day 4; for Body weight of mice (g) Day 0 *d: initial day. Here is the method: Groups of six female BALB/c mice, aged 12 weeks and weighing 19 - 21 g were used. Test compound was dissolved in 0.5% methylcellulose saline solution, and was intratumorally injected to each of the mice in doses of 100 µg/mouse once daily from Day 1 to Day 4 postimplant. Body weight was checked on initial day and Day 4.

The next data set has as its system Fibrosarcoma Meth-A. In words: Test Method A: antitumor effect on intradermally inoculated Meth-A tumor, intratumoral injection of test compound. To be noted: 100 µg/mouse intratumorally once daily Day 1 to Day 4; for Tumor growth inhibition (%) *b: (1-T/C)x100 of mean tumor diameter on Day 21; for Mean tumor size (mm) *a: female BALB/c mice, 1 x 10^5 Meth-A cells intradermally, mean diameter of tumor on Day 21; for Ratio of tumor free mice *c: groups of six mice.

The subject of another data set is Fibrosarcoma Meth A. In words: Test Method B: survival of mice inoculated intrapleurally with Meth A, injection of test compound into pleural cavity. Further details: dose or concentration left out as unconfirmed. Conditions: for Anti-tumor activity (%) *f: T/C x 100 of mean survival time, into pleural cavity three times; for Mean survival time: female BALB/c mice, Meth A cells intrapleurally, into pleural cavity three times (before 14 days, after 1 hour, after 3 days of tumor implantation).

Protocol for Fibrosarcoma Meth A: Groups of eight female BALB/c mice, aged 8-9 weeks and weighing 18.0-22.5 g were used.
Fibrosarcoma Meth A (hereinafter referred to as Meth A) was successively transferred every 7 days into BALB/c mice by intraperitoneal inoculation of the ascites cells thereof and the Meth A in the ascites cells as harvested 6 or 7 days after the inoculation was used as tumor cells.
Each of the BALB/c mice was inoculated intrapleurally with 5 x 10 Meth A cells in 0.1 ml Hanks solution.
Test compound was dissolved in phosphate buffer saline solution, and was injected into pleural cavity to each of the mice in doses of 100 pg/0.05 ml/mouse three times, i.e. before 14 days, after I hour and after 3 days of tumor implantation.
(§1) The control group was given with a vehicle alone in the same way.
The antitumor activity of the test compound was estimated by comparing mean survival time of the two groups. • T : Mean survival time of the medicated group • C : Mean survival time of the control group
Protocol for Fibrosarcoma Meth-A: Fibrosarcoma Meth-A (hereinafter referred to as Meth-A) was successively transferred every 7 days into BALB/c mice by intraperitoneal inoculation of the ascites cells thereof and the Meth-A in the ascites cells as harvested 6 days after the inoculation was used as tumor cells.
Each of the BALB/c mice was inoculated intradermally with 1 x 10^5 Meth-A cells in 0.05 ml Hanks solution.
as §1
The antitumor effectiveness of the test compound was estimated by tumor growth inhibition : (1-T/C)x100. • T : Mean diameter of the growing tumor of the medicated group on Day 21. • C : Mean diameter of the growing tumor of the control group on Day 21.

With `CCCCCCCCCCCCCCCCCCOCC(COP(=O)([O-])OCC[n+]1ccccc1)OC(=O)NC` (racemic) [Example 1 - (4), (rac)-1-O-octadecyl-2-O-methylcarbamoyl-glycerol-3-[2-(1-pyridinio)ethyl]-phosphate], in data set [1], the “Body weight of mice (g) Day 4 *e” value came out at 19.1 ± 1.68 g and the “Body weight of mice (g) Day 0 *d” value turned out to be 18.3 ± 1.11 g. Moreover, in the data set on Fibrosarcoma Meth-A, the “Tumor growth inhibition (%) *b” value was found to be 100%, the “Mean tumor size (mm) *a” value worked out at 0 mm and the “Ratio of tumor free mice *c” value is 6/6.
`CCCCCCCCCCCCCCCCCCOCC(COP(=O)([O-])OCC[n+]1ccccc1)OC(=O)Nc1ccccc1` (racemic) [Example 2 - (4), (rac)-1-O-Octadecyl-2-O-phenylcarbamoyl-glycerol-3-[2-(l-pyridinio)ethyl]phosphate]: in the data set on Fibrosarcoma Meth A, the “Anti-tumor activity (%) *f” value is on record as 117% and the “Mean survival time” value worked out at 7.0 days.
On to `CCCCCCCCCCCCCCCCCCOCC(COP(=O)([O-])OCC[n+]1ccccc1)OC(N)=O` (racemic) [Example 3 - (4), (rac)-1-O-0ctadecyl-2-O-carbamoyl-glycerol-3-[2-(1-pyridinio)ethyl]phosphate], for which, in the data set with Fibrosarcoma Meth A, the “Anti-tumor activity (%) *f” value is listed as 536% and the “Mean survival time” value was 37.5 days.
For the compound `CCCCCCCCCCCCCCCCCCOCC(COP(=O)(O)OCCN1CCN(C)CC1)OC(N)=O` (racemic) [Example 4, (rac)-l-O-Octadecyl-2-0-carbamoyl-glycerol-3-[2-(4-methyl-l-piperazinyl)ethyl]phosphate], in data set [1], the “Body weight of mice (g) Day 4 *e” value worked out at 20.2 ± 1.11 g and the “Body weight of mice (g) Day 0 *d” value stood at 19.5 ± 0.60 g. For the same compound, in the data set with Fibrosarcoma Meth-A, the “Tumor growth inhibition (%) *b” value came to 100%, the “Mean tumor size (mm) *a” value is recorded as 0 mm and the “Ratio of tumor free mice *c” value was 6/6. In addition, in the data set with Fibrosarcoma Meth A, the “Anti-tumor activity (%) *f” value worked out at 236% and the “Mean survival time” value is 16.5 days.

Source of the values: patent EP0089635A2, “Phospholipid derivatives, process for preparation thereof and pharmaceutical composition of the same” (FUJISAWA PHARMACEUTICAL CO., LTD., priority 1982, dated 1983).
